Source: patent US20180273970A1, “PLASMID, TRANSFORMED PLANT CELL AND TRANSGENIC PLANT COMPRISING THE SAME, AND METHODS FOR PREPARING A TRANSGENIC PLANT AND FOR INCREASING YIELD OF A PLANT UNDER ABIOTIC STRESSES” (Academia Sinica, priority 2014, published 2018)

What was measured:
[1] = test system: SKIN-GFP; test: Cellular localization of SKIN-GFP in transfected barley aleurones (confocal microscopy); assay type: cell-based; conditions: −S medium containing ABA, 48 h
Procedure: FIG. 10. ABA restricts SKINs, SnRK1A and MYBS1 in the cytoplasm under sugar starvation. Barley aleurones were co-transfected with indicated plasmid constructs and incubated in +S or −S medium with ABA (+ABA) or without ABA (−ABA) for 48 h. Thirty optical sections of 0.9-1.1 μm thickness were prepared for each cell and only five regularly spaced sections (sections 3, 9, 15, 21 and 27) are shown here. C and N indicate higher GFP signals, and c and n indicate lower GFP signals in the cytoplasm and nucleus, respectively. For more section images of each cell, see also FIG. 22 online. (A) Barley aleurones were transfected with Ubi:SKIN1-GFP, Ubi:SKIN2-GFP, Ubi:SnRK1A-GFP or Ubi:MYBS1-GFP alone. (B) Barley aleurones were transfected with Ubi.MYBS1-GFP alone (panel 1) or co-transfected with Ubi.MYBS1-GFP and Ubi:SnRK1A (panel 2), or with Ubi.MYBS1-GFP and Ubi:SnRK1A(Ri) (panel 3). (C) Barley aleurones were co-transfected with Ubi:SnRK1A-GFP and Ubi:SKIN(Ri). (D) Wild type rice (WT) or transgenic rice overexpression Ubi:SKIN(Ri) were transfected with Ubi:SnRK1A-GFP (panels 1-3) or Ubi.MYBS1-GFP (panels 4-6).
Detection of cellular localization of SKIN-GFP, SnRK1A-GFP and MYBS1-GFP fusion proteins were performed as described (Hong et al., 2012). […]

[2] = test system: SKIN1; test: Quantitative RT-PCR of SKIN1 mRNA in leaves of 2-week-old rice seedlings after stress or ABA; assay type: in vivo; conditions: 24 h after 1 μM ABA
Procedure: FIG. 9. The expression of SKIN is induced by various abiotic stresses and ABA, and SKINs promote the ABA sensitivity. (A) Total RNA was purified from leaves of 2-week-old rice seedlings that had been air dried, treated with 200 mM salt, incubated at 4° C., or treated with 1 μM ABA, or from embryos of seedlings grown underwater (hypoxia), for various lengths of time. RNAs were subjected to quantitative RT-PCR analysis using primers specific for SKIN1 and SKIN2. The highest mRNA level was set as 100%. The lowest mRNA level was assigned a value of 1× and mRNA levels of other samples were calculated relative to this value. Error bars indicate the SE for three replicate experiments. (B) Seeds of transgenic lines SKIN1-Ox(O3), SKIN1-Ri(R3), SKIN2-Ox(02) and SKIN2-Ri(R1) were germinated and grown in water containing various concentrations of ABA at 28° C. under a 14-h light/10-h dark cycle for 6 days. Lengths of shoots were measured. Error bars represent SE (n=8) at significance levels: * p<0.1, ** p<0.05. […]
Total RNA was extracted from leaves of rice seedlings with the Trizol reagent (Invitrogen) and treated with RNase-free DNase I (Promega, Madison, Wis.). […] The quantitative variation between different samples was evaluated by the delta-delta CT method, and the amplification of 18S ribosomal RNA was used as an internal control to normalize all data.

[3] = test system: interaction between SnRK1A and SKINs; test: Rice embryo GAL4-UAS two-hybrid assay (luciferase); assay type: cell-based; conditions: rice embryos, −S medium containing 1 μM ABA
Procedure: FIG. 2. The N-terminus of SKIN interacts with the kinase domain of SnRK1A. For the GAL4-UAS two-hybrid assay, rice embryos were co-transfected with effector and reporter plasmids, incubated in −S medium for 24 h, and assayed for luciferase activity. The luciferase activity in rice embryos bombarded with effectors Ubi:GAD, Ubi:GBD and reporter 5XUAS-35S mp:Luc was set to 1×, and other values were calculated relative to this value. Error bars indicate the SE for three replicate experiments. Significance levels: * p<0.1, ** p<0.05. The Y axis indicates the relative luciferase activity with different constructs. (A) Plasmid constructs. (B) Rice embryos were co-transfected with effectors Ubi:GAD-SnRK1A and Ubi:GBD-SKIN (wild type or truncated) and reporter 5XUAS-35S mp:Luc. (C) Rice embryos were co-transfected with effectors Ubi:GAD-SnRK1A [wild type, kinase domain (KD) or regulatory (RD)], Ubi:GBD-SKIN and reporter 5XUAS-35S mp:Luc. (D) Rice embryos were co-transfected with effectors Ubi:GAD-SnRK1A and Ubi:GBD-SKIN and reporter 5XUAS-35S mp:Luc, and incubated in −S medium containing 1 μM ABA.
Rice embryos were prepared for particle bombardment as described (Chen et al., 2006). The rice embryos were bombarded with reporter, effectors and internal control at a ratio of 4:2:1 for single effector or 4:2:2:1 for two effectors. […]

`CC1=CC(=O)CC(C)(C)[C@@]1(O)/C=C/C(C)=C\C(=O)O` [ABA, abscisic acid] was tested, and the “Localization of SKIN-GFP” value [1] was “exclusively localized in the cytoplasm”, the “Induction of SKIN1 mRNA accumulation” value [2] was ≤ 4.2 fold and the “Effect on the interaction between SnRK1A and SKINs” value [3] was “enhanced”.
